Reference: publication PMC10578352, “Identification of a Protein Arginine Methyltransferase 7 (PRMT7)/Protein Arginine Methyltransferase 9 (PRMT9) Inhibitor” (Journal of Medicinal Chemistry, 2023)

Experiments:
Format in all cases: biochemical
PRMT4 = target: T1, PRMT4 (Homo sapiens, UniProt Q86X55); assay: HotSpot radioisotope-based filter assay, PRMT4
T1 construct: PRMT4 (residues 2–608, C-terminus); with an N-terminal GST-tag; GST (N); purchased Reaction Biology Corporation
T1 sequence (Q86X55 2-608): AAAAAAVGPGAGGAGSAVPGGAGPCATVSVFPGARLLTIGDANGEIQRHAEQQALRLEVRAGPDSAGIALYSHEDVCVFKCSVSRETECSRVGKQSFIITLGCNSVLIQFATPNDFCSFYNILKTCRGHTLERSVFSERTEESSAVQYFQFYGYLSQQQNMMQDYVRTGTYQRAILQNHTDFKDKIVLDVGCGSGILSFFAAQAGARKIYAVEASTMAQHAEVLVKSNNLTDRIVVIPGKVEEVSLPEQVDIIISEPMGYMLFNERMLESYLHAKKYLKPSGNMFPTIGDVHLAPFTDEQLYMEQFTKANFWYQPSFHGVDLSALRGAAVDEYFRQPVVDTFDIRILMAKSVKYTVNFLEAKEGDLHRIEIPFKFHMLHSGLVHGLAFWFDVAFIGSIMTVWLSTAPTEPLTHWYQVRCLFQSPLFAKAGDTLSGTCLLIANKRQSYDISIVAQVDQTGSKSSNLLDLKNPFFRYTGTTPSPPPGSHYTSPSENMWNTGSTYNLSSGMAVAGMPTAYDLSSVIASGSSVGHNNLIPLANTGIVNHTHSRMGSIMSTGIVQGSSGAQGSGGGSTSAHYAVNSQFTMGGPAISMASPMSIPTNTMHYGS
Protocol: (§1) Then, ^3H-SAM (final concentration of 1 μM) was delivered into the reaction mixture to initiate the reaction. After incubation for 60 min at 30 °C, the reaction mixture was delivered to filter-paper for detection (as assessed by scintillation). Data were analyzed using Excel and GraphPad Prism 6.0 software (GraphPad Software Inc., San Diego, CA) for IC50 curve fits using sigmoidal dose vs response - variable slope (four parameters) equations.

PRMT5/MEP50 complex = target: T2, PRMT5/MEP50 complex (Homo sapiens, UniProt O14744); assay: HotSpot radioisotope-based filter assay, PRMT5
T2 construct: residues PRMT5 2–637, C-terminus, and MEP50 2–342, C-terminus; FLAG (N); purchased Reaction Biology Corporation
T2 sequence (O14744 2-637): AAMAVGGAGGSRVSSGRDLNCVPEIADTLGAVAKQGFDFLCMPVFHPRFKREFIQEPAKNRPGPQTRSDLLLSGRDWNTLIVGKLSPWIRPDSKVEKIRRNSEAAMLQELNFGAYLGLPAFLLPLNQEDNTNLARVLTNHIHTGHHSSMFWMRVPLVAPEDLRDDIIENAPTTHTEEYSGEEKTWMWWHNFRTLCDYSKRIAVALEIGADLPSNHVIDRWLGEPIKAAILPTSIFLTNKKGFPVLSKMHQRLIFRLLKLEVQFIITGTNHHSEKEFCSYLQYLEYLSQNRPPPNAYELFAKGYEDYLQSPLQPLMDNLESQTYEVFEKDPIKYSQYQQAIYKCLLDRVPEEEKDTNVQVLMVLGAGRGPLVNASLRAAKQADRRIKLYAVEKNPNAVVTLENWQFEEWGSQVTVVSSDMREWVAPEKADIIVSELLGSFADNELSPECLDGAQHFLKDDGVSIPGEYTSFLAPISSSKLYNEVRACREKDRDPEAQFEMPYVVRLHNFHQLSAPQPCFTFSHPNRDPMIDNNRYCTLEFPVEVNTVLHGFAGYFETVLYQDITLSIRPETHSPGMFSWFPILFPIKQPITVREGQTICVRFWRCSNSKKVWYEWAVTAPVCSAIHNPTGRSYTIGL
T2 sequence (Q9BQA1 2-342 partner limits assumed): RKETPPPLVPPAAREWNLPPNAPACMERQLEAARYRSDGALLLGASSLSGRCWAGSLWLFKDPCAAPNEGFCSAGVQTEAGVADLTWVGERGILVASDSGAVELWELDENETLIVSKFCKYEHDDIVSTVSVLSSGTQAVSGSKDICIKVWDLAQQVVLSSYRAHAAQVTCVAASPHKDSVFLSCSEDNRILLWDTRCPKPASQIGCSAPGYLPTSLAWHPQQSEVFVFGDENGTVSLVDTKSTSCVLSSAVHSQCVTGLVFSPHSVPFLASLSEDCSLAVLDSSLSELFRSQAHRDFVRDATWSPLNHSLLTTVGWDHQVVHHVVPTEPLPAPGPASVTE
Protocol: as §1

ASH1L/KMT2H = target: T3, ASH1L/KMT2H (Homo sapiens, UniProt Q9NR48); assay: HotSpot KMT activity assay, ASH1L; conditions: read-out: % ASH1L residual activity
T3 construct: the human recombinant ASH1L (residues 2046–2330, with an N-terminal His-tag); His (N); purchased Reaction Biology Corporation
Excerpt: ; MW = 35.4 kDa; Genbank Accession # NM_018489), or the human recombinant EZH2-containing five-member polycomb repressive complex 2 (including EZH2 residues 2–746, AEBP2 2–517, EED 2–441, RbAp48 2–425, SUZ12 2–739; all full-length; with N-terminal Flag-tag on EED and N-terminal His-tag on all others; MW = 333.8 kDa; Genbank Accession # NM_001203247, NM_001114176, NM_003797, NM_005610, NM_015355), or the human recombinant G9a (residues 913–1193, C-terminus; with an N-terminal His-tag; MW = 34.6 kDa; Genbank Accession # NM_006709.3), or the human recombinant MLL1 complex (including MLL1 residues 3745–3969, C-terminus, WDR5 22–334, C-terminus, RbBP5 1–538, C-terminus, ASH2L 2–534, C-terminus, DPY-30 1–99, C-terminus; N-terminal His-tag on all subunits; MW = 212.0 kDa; Genbank Accession # NM_005933, NM_017588, NM_005057, NM_001105214, NM_0325742), or the human recombinant SET7/9 (residues 2–366, C-terminus; with a N-terminal GST-tag and a C-terminal His-tag; MW = 68.5 kDa; Genbank Accession # NM_030648), or the human recombinant SMYD3 (residues 2–428, C-terminus; C-terminal His-tag; MW = 50.1 kDa; Genbank Accession # NM_001167740), or the human recombinant SUV39H2 (residues 46–410, C-terminus; N-terminal fusion protein with a C-terminal His-tag; MW = 98.8 kDa; GenBank Accession No. NM_001193424), or the human recombinant DOT1L (residues 1–416; N-terminal GST-tag; MW = 80.0 kDa; Genbank Accession # NM_032482) was added to a solution of the proper substrate (oligo nucleosomes for ASH1L, MLL1 complex, and DOT1L, final concentration 0.05 mg/mL; core histone for EZH2 complex and SET7/9, final concentration 0.05 mg/mL; histone H3 for SUV39H2, final concentration 5 μM; histone H3 1–21 for G9a, final concentration 2.5 μM) in freshly prepared reaction buffer (50 mM Tris-HCl (pH 8.5), 5 mM MgCl2, 50 mM NaCl, 1 mM DTT, 1 mM PMSF, 1% DMSO) and gently mixed. […] After incubation for 60 min at 30 °C, the reaction mixture was delivered to filter paper for detection (as assessed by scintillation). […] Values obtained for each compound are mean ± SD determined for two separate experiments.

G9a/KMT1C = target: T4, G9a/KMT1C (Homo sapiens, UniProt Q96KQ7); assay: HotSpot KMT activity assay, G9a; conditions: read-out: % G9a residual activity
T4 construct: the human recombinant G9a (residues 913–1193, C-terminus); with an N-terminal His-tag; His (N); purchased Reaction Biology Corporation
T4 sequence (Q96KQ7 913-1193): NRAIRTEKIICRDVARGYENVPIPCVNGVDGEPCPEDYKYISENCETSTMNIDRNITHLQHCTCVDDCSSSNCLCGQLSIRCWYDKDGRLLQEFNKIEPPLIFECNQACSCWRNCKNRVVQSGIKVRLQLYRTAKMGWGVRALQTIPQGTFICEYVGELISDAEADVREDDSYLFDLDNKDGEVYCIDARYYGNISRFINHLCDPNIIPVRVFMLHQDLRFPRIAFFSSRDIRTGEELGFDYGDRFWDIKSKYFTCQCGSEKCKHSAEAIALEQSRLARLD
Protocol: Then, ^3H-SAM (final concentration 1 μM) was delivered into the reaction mixture to initiate the reaction. After incubation for 60 min at 30 °C, the reaction mixture was delivered to filter paper for detection (as assessed by scintillation). […] No inhibitor control (DMSO) was considered as showing 100% enzyme activity. Data were analyzed using Excel and GraphPad Prism 6.0 software (GraphPad Software Inc., San Diego, CA). Values obtained for each compound are mean ± SD determined for two separate experiments.

[1] = Figure 2, from IC50 values of ref 31

Row | selectivity index for PRMT7 over PRMT4 (PRMT4; [1]) [fold] | selectivity index for PRMT7 over PRMT5 (PRMT5/MEP50 complex; [1]) [fold] | IC50 (PRMT4; 5 μM histone H3, 3H-SAM 1 μM) [nM] | IC50 (PRMT5/MEP50 complex; 5 μM histone H2A, 3H-SAM 1 μM) [nM] | remaining activity at 10 µM (ASH1L/KMT2H; 10 μM) [%] | remaining activity at 100 µM (ASH1L/KMT2H; 100 μM) [%] | remaining activity at 10 µM (G9a/KMT1C; 10 μM) [%] | remaining activity at 100 µM (G9a/KMT1C; 100 μM) [%] | SMILES
1 | 2 | 234 |  |  |  |  |  |  | COC(=O)c1cc(O)c2cc(NC(=O)NCCCCCNC(=N)NC[C@H]3O[C@@H](n4cnc5c(N)ncnc54)[C@H](O)[C@@H]3O)ccc2c1 [1c]
2 |  |  | 1460 | 1010 | 95.4 ± 1.49 | 109 ± 3.8 | 111 ± 4.3 | 70.93 ± 0.31 | COC(=O)c1cc(O)c2cc(NC(=O)NCCCNC(=N)NC[C@H]3O[C@@H](n4cnc5c(N)ncnc54)[C@H](O)[C@@H]3O)cc(C(F)(F)F)c2c1 [1j, Methyl 6-(3-(3-(3-(((2R,3S,4R,5R)-5-(6-Amino-9H-purin-9-yl)-3,4-dihydroxytetrahydrofuran-2-yl)methyl)guanidino)propyl)ureido)-4-hydroxy-8-(trifluoromethyl)-2-naphthoate]
